ChEMBL document CHEMBL5727912, “Benzenesulfonamide compounds and their use as therapeutic agents” (2020)

What was measured:
[1] = In Vitro Assay: In general, Trex HEK293 cells were stably transfected with an inducible expression vector containing the full-length cDNA coding for the desired human sodium channel α-subunit and with an expression vector containing full length cDNA coding for the β1-subunit. Sodium channel expressing cell lines were induced with tetracycline (1 μg/mL) and plated on 384-well PDL-coated plates at …
[2] = as above; remark: listed apart in the source

Row | Compound | IC50 [1] [µM] | IC50 [2] [µM]
1 | C[C@@H](c1c(F)ccc(F)c1CNc1cc(F)c(S(=O)(=O)Nc2cscn2)c(F)c1)N1C2CCC1CC2 (single isomer, unassigned) | > 30 | > 30
2 | C[C@H](c1c(F)ccc(F)c1CNc1cc(F)c(S(=O)(=O)Nc2cscn2)c(F)c1)N1C2CCC1CC2 (single isomer, unassigned) | > 30 | > 30
